From patent US20230049952A1, “METHODS AND COMPOUNDS FOR RESTORING MUTANT P53 FUNCTION” (PMV Pharmaceuticals, Inc., priority 2020, published 2023)

System: p53 signaling pathway in MT373 tumors
Experiment: MT373 syngeneic sarcoma model: mouse p53 signaling pathway profiling panel
Assay type: in vivo

In the case of `CCn1c(C#CCNc2ccccc2)cc2cc(CNC3CCN(C)CC3)ccc21` [Compound 1, 1-Anilino-3-{1-ethyl-5-[(1-methyl-4-piperidylamino)methyl]-1H-indol-2-yl}-2-propyne], the “Hif1a fold increase or percent reduction vs vehicle control” value (75 mg/kg BIDx1, 72 h) is reported as 1.19 fold or %, the “Il6 fold increase or percent reduction vs vehicle control” value (75 mg/kg BIDx1, 72 h) is reported as 65.67 fold or % and the “Jun fold increase or percent reduction vs vehicle control” value (75 mg/kg BIDx1, 72 h) is reported as 25.77 fold or %. The “Kras fold increase or percent reduction vs vehicle control” value (75 mg/kg BIDx1, 72 h) was 1.09 fold or %, the “Lig4 fold increase or percent reduction vs vehicle control” value (75 mg/kg BIDx1, 72 h) was 1.12 fold or % and the “Mdm2 fold increase or percent reduction vs vehicle control” value (75 mg/kg BIDx1, 72 h) was 2.80 fold or %. For the same molecule, the “Mdm4 fold increase or percent reduction vs vehicle control” value (75 mg/kg BIDx1, 72 h) was 14.78 fold or %, the “Mel1 fold increase or percent reduction vs vehicle control” value (75 mg/kg BIDx1, 72 h) was 21.11 fold or % and the “Mlh1 fold increase or percent reduction vs vehicle control” value (75 mg/kg BIDx1, 72 h) was 4.80 fold or %. The “Msh2 fold increase or percent reduction vs vehicle control” value (75 mg/kg BIDx1, 72 h) was 16.07 fold or %, the “Myod1 fold increase or percent reduction vs vehicle control” value (75 mg/kg BIDx1, 72 h) was 2.73 fold or % and the “Nf1 fold increase or percent reduction vs vehicle control” value (75 mg/kg BIDx1, 72 h) was 21.43 fold or %. The “Nfkb1 fold increase or percent reduction vs vehicle control” value (75 mg/kg BIDx1, 72 h) was 1.73 fold or %, the “Pcna fold increase or percent reduction vs vehicle control” value (75 mg/kg BIDx1, 72 h) was 23.22 fold or % and the “Pmaip1 fold increase or percent reduction vs vehicle control” value (75 mg/kg BIDx1, 72 h) was 1.03 fold or %. The “Ppm1d fold increase or percent reduction vs vehicle control” value (75 mg/kg BIDx1, 72 h) was 5.34 fold or %, the “Prc1 fold increase or percent reduction vs vehicle control” value (75 mg/kg BIDx1, 72 h) was 6.02 fold or % and the “Prkca fold increase or percent reduction vs vehicle control” value (75 mg/kg BIDx1, 72 h) was 6.98 fold or %. For the same molecule, the “Pten fold increase or percent reduction vs vehicle control” value (75 mg/kg BIDx1, 72 h) was 3.49 fold or %, the “Pttg1 fold increase or percent reduction vs vehicle control” value (75 mg/kg BIDx1, 72 h) was 1.03 fold or % and the “Rb1 fold increase or percent reduction vs vehicle control” value (75 mg/kg BIDx1, 72 h) was 3.16 fold or %. The “Rela fold increase or percent reduction vs vehicle control” value (75 mg/kg BIDx1, 72 h) was 4.69 fold or %, the “Rprm fold increase or percent reduction vs vehicle control” value (75 mg/kg BIDx1, 72 h) was 1.34 fold or % and the “Serpinb5 fold increase or percent reduction vs vehicle control” value (75 mg/kg BIDx1, 72 h) was 15.52 fold or %. For the same molecule, the “Sesn2 fold increase or percent reduction vs vehicle control” value (75 mg/kg BIDx1, 72 h) was 1.11 fold or %, the “Sfn fold increase or percent reduction vs vehicle control” value (75 mg/kg BIDx1, 72 h) was 8.30 fold or % and the “Sirt1 fold increase or percent reduction vs vehicle control” value (75 mg/kg BIDx1, 72 h) was 5.18 fold or %. The “Stat1 fold increase or percent reduction vs vehicle control” value (75 mg/kg BIDx1, 72 h) was 1.58 fold or %, the “Tnf fold increase or percent reduction vs vehicle control” value (75 mg/kg BIDx1, 72 h) was 1.28 fold or % and the “Traf1 fold increase or percent reduction vs vehicle control” value (75 mg/kg BIDx1, 72 h) was 1.16 fold or %. For the same molecule, the “Trp53bp2 fold increase or percent reduction vs vehicle control” value (75 mg/kg BIDx1, 72 h) was 7.94 fold or %, the “Trp53 fold increase or percent reduction vs vehicle control” value (75 mg/kg BIDx1, 72 h) was 1.11 fold or % and the “Bbc3 mRNA increase” value (75 mg/kg BID×1, 24 h) was 1.80 fold. For the same molecule, the “Birc5 mRNA decrease” value (75 mg/kg BID×1, 24 h) was 45.92%, the “Ccng1 mRNA increase” value (75 mg/kg BID×1, 24 h) was 4.63 fold and the “Cdc25c mRNA decrease” value (75 mg/kg BID×1, 24 h) was 60.54%. The “Cdk1 mRNA decrease” value (75 mg/kg BID×1, 24 h) was 59.92%, the “Cdkn1a mRNA increase” value (75 mg/kg BID×1, 24 h) was 5.16 fold and the “Chek1 mRNA decrease” value (75 mg/kg BID×1, 24 h) was 52.36%. The “Egfr mRNA change” value (75 mg/kg BID×1, 24 h) was 28.18%, the “Il6 mRNA change” value (75 mg/kg BID×1, 24 h) was 70.78% and the “Mdm2 mRNA increase” value (75 mg/kg BID×1, 24 h) was 2.76 fold. The “Sesn2 mRNA increase” value (75 mg/kg BID×1, 24 h) was 2.05 fold, the “Zmat3 mRNA increase” value (75 mg/kg BID×1, 24 h) was 4.14 fold and the “Apex1 fold increase or percent reduction vs vehicle control” value (150 mg/kg BIDx1, 8 h) was 27.35 fold or %. The “Atm fold increase or percent reduction vs vehicle control” value (150 mg/kg BIDx1, 8 h) was 22.22 fold or %, the “Atr fold increase or percent reduction vs vehicle control” value (150 mg/kg BIDx1, 8 h) was 27.07 fold or % and the “Bag1 fold increase or percent reduction vs vehicle control” value (150 mg/kg BIDx1, 8 h) was 23.32 fold or %. The “Bax fold increase or percent reduction vs vehicle control” value (150 mg/kg BIDx1, 8 h) was 1.68 fold or %, the “Bbc3 fold increase or percent reduction vs vehicle control” value (150 mg/kg BIDx1, 8 h) was 1.97 fold or % and the “Bcl2 fold increase or percent reduction vs vehicle control” value (150 mg/kg BIDx1, 8 h) was 28.71 fold or %. For the same molecule, the “Bid fold increase or percent reduction vs vehicle control” value (150 mg/kg BIDx1, 8 h) was 12.20 fold or %, the “Birc5 fold increase or percent reduction vs vehicle control” value (150 mg/kg BIDx1, 8 h) was 26.07 fold or % and the “Brca1 fold increase or percent reduction vs vehicle control” value (150 mg/kg BIDx1, 8 h) was 34.27 fold or %. The “Brca2 fold increase or percent reduction vs vehicle control” value (150 mg/kg BIDx1, 8 h) was 36.90 fold or %, the “Btg2 fold increase or percent reduction vs vehicle control” value (150 mg/kg BIDx1, 8 h) was 13.04 fold or % and the “Casp2 fold increase or percent reduction vs vehicle control” value (150 mg/kg BIDx1, 8 h) was 34.08 fold or %. The “Ccnb1 fold increase or percent reduction vs vehicle control” value (150 mg/kg BIDx1, 8 h) was 15.72 fold or %, the “Ccne1 fold increase or percent reduction vs vehicle control” value (150 mg/kg BIDx1, 8 h) was 40.62 fold or % and the “Ccng1 fold increase or percent reduction vs vehicle control” value (150 mg/kg BIDx1, 8 h) was 6.49 fold or %. For the same molecule, the “Ccnh fold increase or percent reduction vs vehicle control” value (150 mg/kg BIDx1, 8 h) was 29.12 fold or %, the “Cdc25a fold increase or percent reduction vs vehicle control” value (150 mg/kg BIDx1, 8 h) was 34.26 fold or % and the “Cdk1 fold increase or percent reduction vs vehicle control” value (150 mg/kg BIDx1, 8 h) was 39.81 fold or %. For the same molecule, the “Cdk4 fold increase or percent reduction vs vehicle control” value (150 mg/kg BIDx1, 8 h) was 47.61 fold or %, the “Cdkn1a fold increase or percent reduction vs vehicle control” value (150 mg/kg BIDx1, 8 h) was 8.66 fold or % and the “Cdkn2a fold increase or percent reduction vs vehicle control” value (150 mg/kg BIDx1, 8 h) was 42.49 fold or %. The “Chek1 fold increase or percent reduction vs vehicle control” value (150 mg/kg BIDx1, 8 h) was 41.91 fold or %, the “Cradd fold increase or percent reduction vs vehicle control” value (150 mg/kg BIDx1, 8 h) was 36.95 fold or % and the “Cul9 fold increase or percent reduction vs vehicle control” value (150 mg/kg BIDx1, 8 h) was 26.00 fold or %. For the same molecule, the “Dapk1 fold increase or percent reduction vs vehicle control” value (150 mg/kg BIDx1, 8 h) was 2.02 fold or %, the “Dnmt1 fold increase or percent reduction vs vehicle control” value (150 mg/kg BIDx1, 8 h) was 17.37 fold or % and the “E2f1 fold increase or percent reduction vs vehicle control” value (150 mg/kg BIDx1, 8 h) was 27.89 fold or %. The “E2f3 fold increase or percent reduction vs vehicle control” value (150 mg/kg BIDx1, 8 h) was 27.45 fold or %, the “Egfr fold increase or percent reduction vs vehicle control” value (150 mg/kg BIDx1, 8 h) was 39.84 fold or % and the “Egr1 fold increase or percent reduction vs vehicle control” value (150 mg/kg BIDx1, 8 h) was 53.86 fold or %. For the same molecule, the “Ep300 fold increase or percent reduction vs vehicle control” value (150 mg/kg BIDx1, 8 h) was 11.02 fold or %, the “Ercc1 fold increase or percent reduction vs vehicle control” value (150 mg/kg BIDx1, 8 h) was 16.08 fold or % and the “Esr1 fold increase or percent reduction vs vehicle control” value (150 mg/kg BIDx1, 8 h) was 14.42 fold or %. For the same molecule, the “Fadd fold increase or percent reduction vs vehicle control” value (150 mg/kg BIDx1, 8 h) was 31.64 fold or %, the “Fas fold increase or percent reduction vs vehicle control” value (150 mg/kg BIDx1, 8 h) was 2.12 fold or % and the “Fasl fold increase or percent reduction vs vehicle control” value (150 mg/kg BIDx1, 8 h) was 3.98 fold or %. For the same molecule, the “Foxo3 fold increase or percent reduction vs vehicle control” value (150 mg/kg BIDx1, 8 h) was 1.15 fold or %, the “Gadd45a fold increase or percent reduction vs vehicle control” value (150 mg/kg BIDx1, 8 h) was 23.94 fold or % and the “Hif1a fold increase or percent reduction vs vehicle control” value (150 mg/kg BIDx1, 8 h) was 1.07 fold or %.
